Experimental data as given in patent US20110263485A1, “Bifunctional Griffithsin Analogs” (priority 2009, published 2011).
“And” between values parts separate entries of the source, which are not always exact repeats. Identical values can stand only once. Like-named read-outs stand apart in the source and are kept apart here.

Legend:
[1] = system: HeLa-ADA effector cells (HIV-1 ADA (R5) env) and HeLa-P5L target cells (CD4, CCR5); experiment: R5 cell-cell fusion assay; details: for IC50: read-out: R5 fusion assay IC50
[2] = system: ADA (R5) pseudovirus in TZM-bl cells; details: for IC50: read-out: ADA (R5) single round pseudovirus IC50
[3] = system: HeLa-ADA effector cells and HeLa-P5L target cells seeded with 3T3 cells; experiment: competition R5 fusion assay with mouse 3T3 competitor cells; format: cell-based, HIV-1; details: for inhibition in R5 fusion assay with competitor cells, in words: mouse 3T3 competitor cells
Experimental: In the competition R5 fusion assay, 5×10^3 HeLa-P5L cells were seeded together with 5×10^3 3T3 cells per well. The rest of the procedure was identical to the normal R5 fusion assay.
For a potential therapeutic to be beneficial in an organism, it needs to be able to effectively find its target in the milieu of other cell types and potential binding partners. As a test of this ability, the R5 cell fusion assay was modified with the addition of unrelated mouse 3T3 cells.

X4 fusion = details: Martin et al. (2003); cited from earlier work
CCR5-tropic fusion = details: published reports, vaccinia technology; cited from earlier work
[4] = system: HL2/3 effector cells (HXB2 env (X4)) and HeLa-TZM target cells; experiment: X4 cell-cell fusion assay; format: cell-based, HIV-1
Excerpt: In the X4 fusion assay, HeLa-TZM cells were used as target cells and HL2/3 cells were used as effector cells.

Ba-L (R5) in MAGI cells = experiment: replication competent HIV assay, Ba-L in MAGI cells; format: cell-based
ADA (R5) in MAGI cells = experiment: replication competent HIV assay, ADA in MAGI cells; format: cell-based
IIIB (X4) in MAGI cells = experiment: replication competent HIV assay, IIIB in MAGI cells; format: cell-based
Ba-L (R5) in PBMC = experiment: HIV-1 replication in PBMC, Ba-L; format: cell-based
91US005 (R5) in PBMC = experiment: HIV-1 replication in PBMC, 91US005; format: cell-based
[5] = system: NL4-3 (CXCR4-tropic) in PBMCs; experiment: HIV-1 replication in PBMC, NL4-3; format: cell-based; details: combinations as total protein concentration
[6] = system: 92HT599 (CXCR4-tropic) in PBMCs; experiment: HIV-1 replication in PBMC, 92HT599; format: cell-based; details: combinations as total protein concentration
HIV [7] = details: cited from earlier work
multiple clades of HIV = details: cited from earlier work
human cervical explants = details: cited from earlier work
rabbit vaginal model = details: in vivo; cited from earlier work
[8] = system: HeLa P5L cells pre-incubated with inhibitor, washed, then HeLa ADA cells; experiment: R5 fusion assay with wash-out on P5L cells
[9] = system: HeLa ADA cells pre-incubated with inhibitor, washed, then HeLa P5L cells; experiment: R5 fusion assay with wash-out on ADA cells
[10] = system: JRFL (R5) pseudovirus in TZM-bl cells; experiment: single round infection assay, JRFL pseudovirus
HIV [11] = details: read-out: IC50 (50% inhibition) in in vitro assays; Root & Steger (2004); cited from earlier work
[12] = cited from earlier work

## Griff37 I642D: Griff37 with substitution of Asp for Ile at position 642 in C37
[1]
  inhibition in R5 fusion assay, in words: shows decreased activity

## Ac-HTTWMEWDREINNYTSLIHSLIEESQNLQEKNEQELL-NH2 [C37(Q652L)]
[2]
  IC50: 114 ± 4.94 nM
[1]
  IC50: 28.2 ± 8.34 nM

## P2-RANTES-linker-Griffithsin: P2-RANTES linked to Griffithsin; SEQ ID NO. 4
[3]
  inhibition in R5 fusion assay with competitor cells, in words: appeared to perform better than either protein alone
[1]
  inhibition in R5 fusion assay, in words: more effective than Griffithsin alone

## CD4M33: 27 amino acid peptide designed by Martin et al. as a mimic of human CD4 binding HIV gp120 (CNLHFCQLRCKSLGLLGKCAGSFCACV)
X4 fusion
  IC50: 800 ± 90 nM
CCR5-tropic fusion
  amount required to inhibit CCR5-tropic fusion: micromolar amounts of the peptide are required

## GriffC37(Q652L): Griff37 with point mutation Q652L in the C37 part
[4]
  inhibition in X4 fusion assay, in words: similar
[1]
  inhibition in R5 fusion assay, in words: approximately the same effectiveness as Griff37

## Griffithsin
[4]
  IC50: 0.48 nM and 0.468 nM
[3]; 3T3 competitor cells
  IC50: 1.73 ± 0.603 nM
[3]
  inhibition in R5 fusion assay with competitor cells, in words: still performs well
Ba-L (R5) in MAGI cells
  IC50: 0.04 nM
  IC90: 0.515 ± 0.055 nM
ADA (R5) in MAGI cells
  IC50: 0.03 ± 0.01 nM
  IC90: 0.45 ± 0.04 nM
IIIB (X4) in MAGI cells
  IC50: 0.145 ± 0.065 nM
  IC90: 0.89 ± 0.11 nM
Ba-L (R5) in PBMC; PBMCs, Table 8, combinations as total protein concentration, read-out: Ba-L (CCR5-tropic) IC50
  IC50: 0.28 ± 0.17 nM
Ba-L (R5) in PBMC; PBMCs, Table 8, combinations as total protein concentration, read-out: Ba-L (CCR5-tropic) IC90
  IC90: 0.76 ± 0.15 nM
Ba-L (R5) in PBMC; Table 7, read-out: Ba-L (R5) in PBMC IC50
  IC50: 0.28 ± 0.17 nM
Ba-L (R5) in PBMC; Table 7, read-out: Ba-L (R5) in PBMC IC90
  IC90: 0.76 ± 0.15 nM
91US005 (R5) in PBMC; PBMCs, Table 8, combinations as total protein concentration, read-out: 91US005 (CCR5-tropic) IC50
  IC50: 0.28 ± 0.17 nM
91US005 (R5) in PBMC; PBMCs, Table 8, combinations as total protein concentration, read-out: 91US005 (CCR5-tropic) IC90
  IC90: 0.76 ± 0.15 nM
91US005 (R5) in PBMC; Table 7, read-out: 91US005 (R5) in PBMC IC50
  IC50: 0.16 ± 0.03 nM
91US005 (R5) in PBMC; Table 7, read-out: 91US005 (R5) in PBMC IC90
  IC90: 0.51 ± 0.08 nM
[5]
  IC50: 0.17 ± 0.04 nM
  IC90: 0.725 ± 0.13 nM
[6]
  IC50: 0.74 ± 0.37 nM
  IC90: 1.86 ± 0.89 nM
[2]
  IC50: 0.008 ± 0.016 nM
[2]; read-out: ADA (R5) single round pseudovirus IC90
  IC90: 0.164 ± 0.069 nM
HIV [7]
  activity in cervical/vaginal lavage fluid: retains its activity
Multiple clades of HIV
  activity against clades of HIV: active against multiple clades of HIV
Human cervical explants
  inflammation in human cervical explants: non-inflammatory
Rabbit vaginal model
  irritation in a rabbit vaginal model: non irritating
[1]
  IC50: 1.31 nM and 1.3 nM
[8]
  inhibition after wash-out on target (P5L) cells, in words: still performed well
[8]; read-out: R5 fusion with wash-out on P5L cells IC50
  IC50: 7.34 ± 3.58 nM
[9]
  inhibition after wash-out on ADA cells, in words: maintained nanomolar effectiveness
[9]; read-out: R5 fusion with wash-out on ADA cells IC50
  IC50: 4.28 ± 1.5 nM
[10]; read-out: JRFL (R5) single round pseudovirus IC50
  IC50: 0.035 ± 0.008 nM
[10]; read-out: JRFL (R5) single round pseudovirus IC90
  IC90: 1.25 ± 0.19 nM

## enfuvirtide
HIV [11]
  IC50: 2 to 20 nM
[12]
  lifetime in vivo: short lifetime of only hours in vivo
